No end group written: not given here.
Key:
POU5F1 (Oct3/4) = POU5F1 (Oct3/4) expression after adding small molecules to the adult stem cell culture medium; format: cell-based
native human MSC = assay: Puromycin dose-response / selection: killing of native, non-transfected human MSC; format: cell-based; details: 10 μg/ml puromycin in medium
Experimental: Human mesenchymal stem cells (Vitro Diagnostics, Inc., catalog number SC00A1) were cultured at 7500/cm^2 in T25 flasks (Greiner Bio-One catalog number 690-190) following coating at 2 μg/cm^2 with poly-L-lysine (Sigma Catalog number P1399) using low serum complete MSC cell culture medium (Vitro Diagnostics, Inc., catalog number SC00B1). Cultures were maintained here and throughout this study in a 5% O2, 5% CO2, balance N2 gas environment in a humidified chamber maintained at 37° C. Following two days of continuous culture and at about 40% confluence, the cultures were exposed to 1/15 dilution of the POU5-F1 pseudovirus stock in low serum medium containing 5 μg/ml polybrene (Sigma catalog number H9268). Following 10 hours exposure to the pseudovirus particles, the cultures were washed twice with PBS and cultured in low serum medium (Vitro SC00B1). Selection of stable transfectants began 16 hours later using 3 to 10 μg/ml puromycin (Sigma catalog number P7255) which was a sufficient concentration to kill native, non-transfected human MSC. Single colony clones were established by limited dilution cloning in 96 well plates (Greiner Bio-One, catalog number 655-160) using low serum MSC medium (Vitro Diagnostics, Inc., catalog number SC00B1) containing 10 μg/ml puromycin. […]

[1] = added to the medium at 1 to 2 mM

For `O=C1O[C@H]([C@@H](O)CO)C(O)=C1O` [Vitamin C, ascorbic acid], the “POU5F1 (Oct3/4) expression” value (POU5F1 (Oct3/4); added to the medium at 60 μM) was “increased POU5F1 (Oct3/4) expression”.

“gonadotropin releasing hormone (QHWSYGLRPG; ends and bridges not checked; UniProt P01148 24-33, looked up) [GnRH]” was tested, and the “POU5F1 (Oct3/4) expression” value (POU5F1 (Oct3/4); added to the medium at 75 pg/ml) was “increased POU5F1 (Oct3/4) expression”.

With `Nc1ncn([C@@H]2O[C@H](CO)[C@@H](O)[C@H]2O)c(=O)n1` [5-azacytidine] the “POU5F1 (Oct3/4) expression” value (POU5F1 (Oct3/4); added to the medium at 0.5 mM, transient periods </=48 hours) was “increased POU5F1 (Oct3/4) expression”.

For `COc1ccc(C[C@H](N)C(=O)N[C@H]2[C@@H](O)[C@H](n3cnc4c(N(C)C)ncnc43)O[C@@H]2CO)cc1` [puromycin], the “effect on wild type MSCs” value (native human MSC) was “lethal”.

For `CCCC(CCC)C(=O)O` [valproic acid], the “POU5F1 (Oct3/4) expression” value (POU5F1 (Oct3/4); [1]) was “increased POU5F1 (Oct3/4) expression”.

For `CCCC(=O)[O-].[Na+]` [sodium butyrate], the “POU5F1 (Oct3/4) expression” value (POU5F1 (Oct3/4); [1]) was “increased POU5F1 (Oct3/4) expression”.

`C[C@]12CCC(=O)C=C1CC[C@@H]1[C@@H]2[C@@H](O)C[C@@]2(C)[C@H]1CC[C@]2(O)C(=O)CO` [Hydrocortisone, hydrocortisone] was tested, and the “POU5F1 (Oct3/4) expression” value (POU5F1 (Oct3/4); added to the medium, preferably at 80 to 110 nM) was “increased POU5F1 (Oct3/4) expression”.

Source: patent US20120276070A1, “Induced Pluripotent Stem Cells and Related Methods” (VITRO DIAGNOSITICS, INC., priority 2009, published 2012)
